Measurements taken from the supplement of paper PMC10307832.

Assays:
Test in all cases: relative viability (nuclei count vs DMSO), 5 days (fraction); higher = more cells survive
[1] = compound: NC1(c2ccc(-c3nc4ccn5c(=O)[nH]nc5c4cc3-c3ccccc3)cc2)CCC1 [MK-2206] + Cc1nc(Nc2ncc(C(=O)Nc3c(C)cccc3Cl)s2)cc(N2CCN(CCO)CC2)n1 [Dasatinib] (partner 0.075 µM)
Procedure, shortened: (§1)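 Relative viability is defined as nuclei in treated wells over nuclei in vehicle wells. Duplicate plates were run and medians reported. Lung cancer cell lines in 1536-well plates were dosed by pin tool one day after seeding, with one drug or with a fixed anchor-drug dose plus five library-drug doses (not always all listed) in √10 steps, and nuclei were counted after 5 days.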

[2] = compound: NC1(c2ccc(-c3nc4ccn5c(=O)[nH]nc5c4cc3-c3ccccc3)cc2)CCC1 [MK-2206] + COc1cccc2cc(-c3nc([C@H]4CC[C@H](C(=O)O)CC4)n4ncnc(N)c34)[nH]c12 [OSI-027] (partner 0.5 µM)
Procedure, shortened: as §1

[3] = compound: NC1(c2ccc(-c3nc4ccn5c(=O)[nH]nc5c4cc3-c3ccccc3)cc2)CCC1 [MK-2206] + Cc1nc(NC(=O)N2CCC[C@H]2C(N)=O)sc1-c1ccnc(C(C)(C)C(F)(F)F)c1 [Alpelisib] (partner 2 µM)
Procedure, shortened: as §1

[4] = compound: NC1(c2ccc(-c3nc4ccn5c(=O)[nH]nc5c4cc3-c3ccccc3)cc2)CCC1 [MK-2206] + CS(=O)(=O)CCNCc1ccc(-c2ccc3ncnc(Nc4ccc(OCc5cccc(F)c5)c(Cl)c4)c3c2)o1 [Lapatinib] (partner 2 µM)
Procedure, shortened: as §1

[5] = compound: NC1(c2ccc(-c3nc4ccn5c(=O)[nH]nc5c4cc3-c3ccccc3)cc2)CCC1 [MK-2206] + CC(=O)Nc1cccc(-n2c(=O)n(C3CC3)c(=O)c3c(Nc4ccc(I)cc4F)n(C)c(=O)c(C)c32)c1 [Trametinib] (partner 0.02 µM)
Procedure, shortened: as §1

Cell Line | relative viability ([1]; first compound 0.01 µM) | relative viability ([1]; first compound 0.03162 µM) | relative viability ([1]; first compound 0.3162 µM) | relative viability ([1]; first compound 1 µM) | relative viability ([2]; first compound 0.01 µM) | relative viability ([2]; first compound 0.03162 µM) | relative viability ([2]; first compound 0.3162 µM) | relative viability ([2]; first compound 1 µM) | relative viability ([3]; first compound 0.01 µM) | relative viability ([3]; first compound 0.03162 µM) | relative viability ([3]; first compound 0.3162 µM) | relative viability ([3]; first compound 1 µM) | relative viability ([4]; first compound 0.01 µM) | relative viability ([4]; first compound 0.03162 µM) | relative viability ([4]; first compound 0.3162 µM) | relative viability ([4]; first compound 1 µM) | relative viability ([5]; first compound 0.01 µM) | relative viability ([5]; first compound 0.03162 µM) | relative viability ([5]; first compound 0.3162 µM) | relative viability ([5]; first compound 1 µM)
LOU-NH91 | 0.628 | 0.638 | 0.571 | 0.375 | 0.72 | 0.695 | 0.668 | 0.555 | 0.73 | 0.796 | 0.667 | 0.682 | 0.786 | 0.739 | 0.603 | 0.584 | 0.793 | 0.817 | 0.77 | 0.686
LU99A | 0.524 | 0.733 | 0.48 | 0.498 | 0.318 | 0.335 | 0.219 | 0.283 | 0.569 | 0.559 | 0.396 | 0.472 | 1.05 | 0.871 | 0.904 | 0.877 | 0.524 | 0.537 | 0.473 | 0.553
NCI-H441 | 0.566 | 0.503 | 0.501 | 0.422 | 0.922 | 0.473 | 0.428 | 0.393 | 0.697 | 0.742 | 0.453 | 0.661 |  |  |  |  | 0.532 | 0.447 | 0.28 | 0.333
NCI-H522 | 0.98 | 0.842 | 0.857 | 0.894 | 0.867 | 0.726 | 0.615 | 0.631 |  |  |  |  |  |  |  |  | 0.817 | 0.746 | 0.635 | 0.672
NCI-H1299 |  |  |  |  |  |  |  |  | 1.03 | 1.05 | 1.03 | 1.03 | 0.963 | 0.946 | 1 | 1.02 |  |  |  | 
NCI-H1563 | 0.492 | 0.449 | 0.406 | 0.407 | 0.756 | 0.727 | 0.626 | 0.6 | 0.934 | 0.764 | 0.695 | 0.656 | 0.843 | 0.911 | 0.783 | 0.711 |  |  |  | 
NCI-H1623 | 0.518 | 0.471 | 0.556 | 0.423 | 0.44 | 0.426 | 0.411 | 0.355 |  |  |  |  |  |  |  |  |  |  |  | 
NCI-H1648 |  |  |  |  | 0.256 | 0.246 | 0.279 | 0.251 |  |  |  |  |  |  |  |  | 0.491 | 0.497 | 0.591 | 0.497
NCI-H1650 | 0.312 | 0.273 | 0.215 | 0.244 | 0.58 | 0.66 | 0.488 | 0.39 |  |  |  |  | 0.685 | 0.768 | 0.687 | 0.784 | 0.54 | 0.649 | 0.612 | 0.643
NCI-H1703 |  |  |  |  |  |  |  |  | 0.355 | 0.366 | 0.317 | 0.416 | 1.24 | 0.959 | 0.71 | 0.571 |  |  |  | 
NCI-H2342 | 0.369 | 0.296 | 0.282 | 0.276 | 0.649 | 0.614 | 0.555 | 0.484 |  |  |  |  |  |  |  |  | 0.909 | 0.8 | 0.664 | 0.682
SW 900 | 0.573 | 0.636 | 0.531 | 0.476 | 0.728 | 0.542 | 0.416 | 0.481 |  |  |  |  |  |  |  |  | 0.809 |  | 0.702 | 0.86
